Data: patent publication US20050282743A1, “Molecular interactions in cells” (Arbor Vita Corporation, priority 2001, published 2005)
Ends that are not written are not given here. Peptide text beside a SMILES is read from it. * marks the point of attachment. Biotin = O=C1N[C@H]2[C@H](CS[C@H]2CCCCC(=O)*)N1

target: T1, PDZ protein (GST-PDZ fusion) (Homo sapiens, UniProt O14641); assay: G' assay (10 uM PL peptide), results of TABLE 7 and TABLE 12; type: binding; conditions: PDZ DVL2, PDZ Domain 1
T1 construct: made in house; host or cells: E. coli (DH5alpha, BL21 or JM109)
T1 sequence (O14641 1-736): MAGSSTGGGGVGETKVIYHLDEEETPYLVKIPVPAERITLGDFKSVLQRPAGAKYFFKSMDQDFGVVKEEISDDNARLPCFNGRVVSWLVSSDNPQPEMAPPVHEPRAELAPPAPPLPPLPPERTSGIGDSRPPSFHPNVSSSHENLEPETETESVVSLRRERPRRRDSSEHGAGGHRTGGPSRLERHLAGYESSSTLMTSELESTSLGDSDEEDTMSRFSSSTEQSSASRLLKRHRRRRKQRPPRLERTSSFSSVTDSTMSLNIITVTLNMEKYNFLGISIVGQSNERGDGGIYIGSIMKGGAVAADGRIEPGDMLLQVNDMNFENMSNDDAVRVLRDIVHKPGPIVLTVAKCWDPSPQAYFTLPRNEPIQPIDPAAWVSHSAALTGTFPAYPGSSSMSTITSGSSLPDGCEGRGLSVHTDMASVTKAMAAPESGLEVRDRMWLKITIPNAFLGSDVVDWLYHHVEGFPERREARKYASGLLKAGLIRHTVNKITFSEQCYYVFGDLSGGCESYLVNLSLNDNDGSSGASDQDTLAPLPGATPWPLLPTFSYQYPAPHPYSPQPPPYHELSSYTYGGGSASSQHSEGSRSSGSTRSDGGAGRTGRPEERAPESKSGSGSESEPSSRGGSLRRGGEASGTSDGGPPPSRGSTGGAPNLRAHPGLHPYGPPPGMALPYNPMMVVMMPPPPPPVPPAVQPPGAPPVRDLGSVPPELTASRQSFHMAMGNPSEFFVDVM
Procedure, shortened: (§1)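 Biotin-PL peptide (N-term label), 10 uM vs GST-PDZ; protein 5 ug/ml by default. A450 nm binned: 1 = 0-1, 2 = 1-2, 3 = 2-3, 4 = 3-4, 5 = >4 on >2 repeats, 0 = no binding.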

| Compound | Classification |
| --- | --- |
| ELLQFCRTPNPALKNGQYWV (Biotin-ELLQFCRTPNPALKNGQYWV) | 5 (A450 nm of 4 more than 2× repeated) |
| CC[C@H](C)[C@H](NC(=O)[C@H](Cc1ccc(O)cc1)NC(=O)[C@H](CC(C)C)NC(=O)[C@H](CCC(N)=O)NC(=O)[C@H](Cc1c[nH]cn1)NC(=O)[C@H](CO)NC(=O)[C@H](C)NC(=O)[C@H](CC(C)C)NC(=O)[C@@H](NC(=O)[C@H](CC(=O)O)NC(=O)[C@H](CCSC)NC(=O)[C@H](Cc1ccccc1)NC(=O)[C@@H]1CCCN1C(=O)[C@H](CCCNC(=N)N)NC(=O)[C@@H](NC(=O)[C@H](CC(C)C)NC(=O)[C@H](CC(N)=O)NC(=O)[C@H](CC(=O)O)NC(=O)[C@@H](NC(=O)[C@H](CO)NC(=O)CCCC[C@@H]1SC[C@@H]2NC(=O)N[C@@H]21)[C@@H](C)O)C(C)C)[C@@H](C)O)C(=O)O [presenilin-2] (Biotin-STDNLVRPFMDTLASHQLYI-OH; C-terminus assumed) | 1 (A450 nm 0-1) |
| CC[C@H](C)[C@H](NC(=O)[C@H](Cc1ccc(O)cc1)NC(=O)[C@@H](NC(=O)[C@@H]1CCCN1C(=O)[C@H](CCC(N)=O)NC(=O)[C@H](CCC(=O)O)NC(=O)[C@H](CCC(N)=O)NC(=O)[C@H](C)NC(=O)[C@@H](NC(=O)[C@H](CC(C)C)NC(=O)[C@H](CC(C)C)NC(=O)[C@H](CCCNC(=N)N)NC(=O)[C@H](Cc1ccc(O)cc1)NC(=O)[C@H](CCSC)NC(=O)[C@H](C)NC(=O)[C@H](C)NC(=O)[C@@H]1CCCN1C(=O)[C@H](CCSC)NC(=O)[C@@H](NC(=O)[C@H](CCCCN)NC(=O)CCCC[C@@H]1SC[C@@H]2NC(=O)N[C@@H]21)[C@@H](C)O)[C@@H](C)O)C(C)C)C(=O)O [MINT-1] (Biotin-KTMPAAMYRLLTAQEQPVYI-OH; C-terminus assumed) | 2 (A450 nm 1-2) |
| KTMPAATYRLLTGQEQPVYL (Biotin-KTMPAATYRLLTGQEQPVYL) [MINT-3] | 1 (A450 nm 0-1) |
| KTMPAAMFRLLTGQETPLYI (Biotin-KTMPAAMFRLLTGQETPLYI) [MINT-2] | 2 (A450 nm 1-2) |
| A2AC_HUMAN (Modified) (Biotin-DFRPSFKHILFRRARRGFRQ; not fully specified) | 3 (A450 nm 2-3) |
| ALVLIAFCIIRRRPSAYQAL (Biotin-ALVLIAFCIIRRRPSAYQAL) [CD68] | 2 (A450 nm 1-2) |

target: T2, PDZ protein (GST-PDZ fusion) (Homo sapiens, UniProt O15085); assay: as above; type: binding; conditions: PDZ KIAA0380, PDZ Domain 1
T2 construct: made in house; host or cells: E. coli (DH5alpha, BL21 or JM109)
Procedure, shortened: as §1

T2 sequence (O15085 whole entry, the tested form may be a part): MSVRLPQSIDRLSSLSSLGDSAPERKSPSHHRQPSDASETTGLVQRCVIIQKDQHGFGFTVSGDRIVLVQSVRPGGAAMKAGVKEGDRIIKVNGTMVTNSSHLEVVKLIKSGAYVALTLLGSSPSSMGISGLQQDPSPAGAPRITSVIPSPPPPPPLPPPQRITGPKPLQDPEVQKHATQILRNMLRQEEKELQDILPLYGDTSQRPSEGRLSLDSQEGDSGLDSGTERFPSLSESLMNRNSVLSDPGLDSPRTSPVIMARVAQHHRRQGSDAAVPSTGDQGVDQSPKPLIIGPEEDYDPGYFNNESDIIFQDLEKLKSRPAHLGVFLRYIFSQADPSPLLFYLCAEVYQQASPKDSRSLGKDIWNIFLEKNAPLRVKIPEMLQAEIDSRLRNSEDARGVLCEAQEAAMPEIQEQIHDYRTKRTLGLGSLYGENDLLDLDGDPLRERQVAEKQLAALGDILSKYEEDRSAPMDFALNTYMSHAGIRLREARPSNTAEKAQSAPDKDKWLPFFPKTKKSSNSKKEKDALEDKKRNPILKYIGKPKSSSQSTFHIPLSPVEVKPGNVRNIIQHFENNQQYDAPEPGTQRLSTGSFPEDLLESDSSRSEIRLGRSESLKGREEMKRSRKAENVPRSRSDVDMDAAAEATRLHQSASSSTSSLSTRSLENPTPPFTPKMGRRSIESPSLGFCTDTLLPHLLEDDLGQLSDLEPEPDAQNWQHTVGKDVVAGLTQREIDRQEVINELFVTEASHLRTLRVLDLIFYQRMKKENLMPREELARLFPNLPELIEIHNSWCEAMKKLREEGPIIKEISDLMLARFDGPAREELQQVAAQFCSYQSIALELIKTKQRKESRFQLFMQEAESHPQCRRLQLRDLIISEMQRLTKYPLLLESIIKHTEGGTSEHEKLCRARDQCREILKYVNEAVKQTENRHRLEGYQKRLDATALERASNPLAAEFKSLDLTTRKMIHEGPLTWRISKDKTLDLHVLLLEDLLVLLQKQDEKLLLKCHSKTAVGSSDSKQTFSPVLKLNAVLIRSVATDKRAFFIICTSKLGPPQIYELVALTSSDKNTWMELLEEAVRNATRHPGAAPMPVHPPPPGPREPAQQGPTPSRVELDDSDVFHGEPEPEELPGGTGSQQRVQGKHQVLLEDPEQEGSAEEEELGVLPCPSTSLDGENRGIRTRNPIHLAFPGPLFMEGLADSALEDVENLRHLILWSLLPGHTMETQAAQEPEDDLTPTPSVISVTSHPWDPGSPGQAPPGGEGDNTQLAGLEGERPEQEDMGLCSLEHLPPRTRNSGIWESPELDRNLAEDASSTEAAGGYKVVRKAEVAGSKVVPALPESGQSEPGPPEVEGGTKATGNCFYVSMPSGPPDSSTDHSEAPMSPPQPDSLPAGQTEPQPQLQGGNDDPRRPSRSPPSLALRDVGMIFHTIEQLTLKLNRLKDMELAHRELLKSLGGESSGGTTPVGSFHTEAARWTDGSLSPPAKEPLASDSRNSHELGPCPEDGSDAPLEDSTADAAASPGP

| Compound | Classification |
| --- | --- |
| RNIEEVYVGGKQVVPFSSSV (Biotin-RNIEEVYVGGKQVVPFSSSV) [Nedasin (s-form)] | 1 (A450 nm 0-1) |
| CC(C)C[C@H](NC(=O)[C@H](C)NC(=O)[C@@H](NC(=O)[C@H](CCC(=O)O)NC(=O)[C@H](CCCNC(=N)N)NC(=O)[C@H](CCCNC(=N)N)NC(=O)CNC(=O)[C@H](CCC(N)=O)NC(=O)[C@H](CC(C)C)NC(=O)[C@H](CCCNC(=N)N)NC(=O)CNC(=O)CNC(=O)[C@H](CCCNC(=N)N)NC(=O)[C@H](C)NC(=O)[C@H](CO)NC(=O)[C@H](CCCNC(=N)N)NC(=O)CNC(=O)CNC(=O)[C@H](C)NC(=O)[C@H](C)NC(=O)CCCC[C@@H]1SC[C@@H]2NC(=O)N[C@@H]21)[C@@H](C)O)C(=O)O [HPV E6 33 (modified)] (Biotin-AAGGRSARGGRLQGRRETAL-OH; C-terminus assumed) | 1 (A450 nm 0-1) |
| TQGFPGPATWRRISSLESEV | 1 (A450 nm 0-1) |
| CC(C)C[C@H](NC(=O)[C@H](CC(=O)O)NC(=O)[C@H](CO)NC(=O)[C@H](CCC(=O)O)NC(=O)CNC(=O)[C@H](Cc1ccc(O)cc1)NC(=O)[C@H](CC(C)C)NC(=O)[C@H](C)NC(=O)[C@H](CO)NC(=O)[C@H](CO)NC(=O)[C@H](Cc1ccccc1)NC(=O)[C@H](C)NC(=O)[C@H](C)NC(=O)[C@H](Cc1ccc(O)cc1)NC(=O)[C@H](CC(=O)O)NC(=O)[C@H](CC(C)C)NC(=O)[C@H](C)NC(=O)CNC(=O)[C@@H]1CCCN1C(=O)[C@@H](NC(=O)CCCC[C@@H]1SC[C@@H]2NC(=O)N[C@@H]21)C(C)C)C(=O)O [a-actinin 2] (Biotin-VPGALDYAAFSSALYGESDL-OH; C-terminus assumed) | 1 (A450 nm 0-1) |
| CC[C@H](C)[C@H](NC(=O)[C@H](C)NC(=O)[C@H](CC(C)C)NC(=O)[C@H](Cc1c[nH]c2ccccc12)NC(=O)[C@H](Cc1c[nH]cn1)NC(=O)[C@H](CCC(N)=O)NC(=O)[C@H](CC(C)C)NC(=O)[C@H](CCC(N)=O)NC(=O)[C@H](Cc1ccccc1)NC(=O)[C@H](CCC(N)=O)NC(=O)[C@H](CCCNC(=N)N)NC(=O)[C@@H](NC(=O)[C@H](CC(=O)O)NC(=O)[C@H](CCCNC(=N)N)NC(=O)[C@H](CCC(N)=O)NC(=O)[C@H](C)NC(=O)[C@@H](NC(=O)[C@H](CC(C)C)NC(=O)[C@H](Cc1c[nH]cn1)NC(=O)[C@H](Cc1c[nH]cn1)NC(=O)CCCC[C@@H]1SC[C@@H]2NC(=O)N[C@@H]21)C(C)C)[C@@H](C)CC)C(=O)O [noradrenaline transporter] (Biotin-HHLVAQRDIRQFQLQHWLAI-OH; C-terminus assumed) | 1 (A450 nm 0-1) |
| CC(C)C[C@H](NC(=O)[C@H](CCCNC(=N)N)NC(=O)CNC(=O)CNC(=O)[C@H](CCCNC(=N)N)NC(=O)[C@H](C)NC(=O)[C@@H]1CCCN1C(=O)[C@H](CCCNC(=N)N)NC(=O)CNC(=O)CNC(=O)[C@@H](NC(=O)[C@H](C)NC(=O)CCCC[C@@H]1SC[C@@H]2NC(=O)N[C@@H]21)C(C)C)C(=O)N[C@@H](CCC(N)=O)C(=O)NCC(=O)N[C@@H](CCCNC(=N)N)C(=O)N[C@@H](CCCNC(=N)N)C(=O)N[C@@H](CCC(N)=O)C(=O)N[C@H](C(=O)N[C@@H](CCC(N)=O)C(=O)N[C@H](C(=O)O)C(C)C)[C@@H](C)O [HPV E6 58 (modified)] (Biotin-AVGGRPARGGRLQGRRQTQV-OH; C-terminus assumed) | 1 (A450 nm 0-1) |
| CSCC[C@H](NC(=O)[C@H](C)NC(=O)[C@H](CCCNC(=N)N)NC(=O)CNC(=O)[C@@H](NC(=O)[C@H](Cc1c[nH]c2ccccc12)NC(=O)[C@H](CCCNC(=N)N)NC(=O)CNC(=O)CCCC[C@@H]1SC[C@@H]2NC(=O)N[C@@H]21)[C@@H](C)O)C(=O)N[C@@H](CO)C(=O)N[C@@H](C)C(=O)N[C@@H](Cc1c[nH]c2ccccc12)C(=O)N[C@@H](CCCCN)C(=O)N1CCC[C@H]1C(=O)N[C@H](C(=O)N[C@@H](CCCNC(=N)N)C(=O)N[C@@H](CCCNC(=N)N)C(=O)N[C@@H](CCC(=O)O)C(=O)N[C@H](C(=O)N[C@@H](CCC(=O)O)C(=O)N[C@H](C(=O)O)C(C)C)[C@@H](C)O)[C@@H](C)O [HPV E6 #35 (modified)] (Biotin-GRWTGRAMSAWKPTRRETEV-OH; C-terminus assumed) | 3 (A450 nm 2-3) |
| ARHRVTSYTSSSVNVSSNL (Biotin-ARHRVTSYTSSSVNVSSNL) [IL-8RB] | 1 (A450 nm 0-1) |
